Reference: ChEMBL document CHEMBL1151930, “Physicochemical determinants of human renal clearance” (J Med Chem, 2009)

Assays:
[1] = Total body clearance in human; conditions: in vivo
[2] = clinical; conditions: human, in vivo

| Compound | clearance [1] [mL/min/kg] | CL renal [2] [mL/min/kg] |
| --- | --- | --- |
| C#CCN(C)[C@H](C)Cc1ccccc1 [SELEGILINE] | 20 | 0.2 |
| CCCC1O[C@@H]2C[C@H]3[C@@H]4CCC5=CC(=O)C=C[C@]5(C)[C@H]4[C@@H](O)C[C@]3(C)[C@]2(C(=O)CO)O1 (some centres undefined) [BUDESONIDE] | 20 | 1 |
| CCC1=C[C@@H]2CN(C1)Cc1c([nH]c3ccccc13)[C@@](C(=O)OC)(c1cc3c(cc1OC)N(C)[C@H]1[C@@](O)(C(=O)OC)[C@H](OC(C)=O)[C@]4(CC)C=CCN5CC[C@]31[C@@H]54)C2 [VINORELBINE] | 20 | 2.2 |
| CCCn1c(=O)[nH]c(=O)c2[nH]cnc21 [ENPROFYLLINE] | 4 | 3.56 |
| Clc1cccc(Cl)c1N=C1NCCN1 [CLONIDINE] | 4 | 2.48 |
| CC(=O)Nc1ccc(OCC(O)CNC(C)C)cc1 (centres undefined) [PRACTOLOL] | 2 | 1.7 |
| N=C(N)NC(=O)Cc1c(Cl)cccc1Cl [GUANFACINE] | 5.9 | 3 |
| COc1ccc([C@]2(C#N)CC[C@@H](C(=O)O)CC2)cc1OC1CCCC1 [CILOMILAST] | 0.5 | 0.01 |
| O=C(NCCN1CCOCC1)c1ccc(Cl)cc1 [MOCLOBEMIDE] | 10 | 0.05 |
| CN(C)[C@@H]1C(O)=C(C(N)=O)C(=O)[C@@]2(O)C(O)=C3C(=O)c4c(O)cccc4[C@@](C)(O)[C@H]3[C@H](O)[C@@H]12 [OXYTETRACYCLINE] | 2 | 1.4 |
| CC[C@@]1(O)C(=O)OCc2c1cc1n(c2=O)Cc2c-1nc1ccccc1c2N | 6.5 | 0.56 |
| C=CC[C@@H]1/C=C(\C)C[C@H](C)C[C@H](OC)[C@H]2O[C@@](O)(C(=O)C(=O)N3CCCC[C@H]3C(=O)O[C@H](/C(C)=C/[C@@H]3CC[C@@H](O)[C@H](OC)C3)[C@H](C)[C@@H](O)CC1=O)[C@H](C)C[C@@H]2OC [TACROLIMUS ANHYDROUS] | 0.7 | 0.01 |
| CCN1CCCC1CNC(=O)c1cc(S(N)(=O)=O)ccc1OC (centres undefined) [SULPIRIDE] | 1.83 | 1.7 |
| CC1COc2c(N3CCN(C)CC3)c(F)cc3c(=O)c(C(=O)O)cn1c23 (centres undefined) [OFLOXACIN] | 3.5 | 2.7 |
| CN(C)CCc1c[nH]c2ccc(Cn3cncn3)cc12 [RIZATRIPTAN] | 19 | 5.32 |
| CCC1=C(C)CN(C(=O)NCCc2ccc(S(=O)(=O)NC(=O)N[C@H]3CC[C@H](C)CC3)cc2)C1=O [GLIMEPIRIDE] | 0.5 | – |
| CC[C@H]1OC(=O)[C@H](C)[C@@H](O[C@H]2C[C@@](C)(OC)[C@@H](O)[C@H](C)O2)[C@H](C)[C@@H](O[C@@H]2O[C@H](C)C[C@H](N(C)C)[C@H]2O)[C@](C)(O)C[C@@H](C)CN(C)[C@H](C)[C@@H](O)[C@]1(C)O [AZITHROMYCIN] | 10 | 0.45 |
| CN1C(=O)C(O)N=C(c2ccccc2Cl)c2cc(Cl)ccc21 (centres undefined) [LORMETAZEPAM] | 4 | – |
| CCN(CC)C(=O)/C(C#N)=C/c1cc(O)c(O)c([N+](=O)[O-])c1 [ENTACAPONE] | 11.7 | 6.4 |
| COCCCOc1ccnc(C[S+]([O-])c2nc3ccccc3[nH]2)c1C (centres undefined) [RABEPRAZOLE] | 4 | – |
| CC1(C)S[C@@H]2[C@H](NC(=O)[C@H](C(=O)O)c3ccsc3)C(=O)N2[C@H]1C(=O)O [TICARCILLIN] | 2.2 | 1.9 |

| Compound | clearance [1] [mL/min/kg] | CL renal [2] [mL/min/kg] |
| --- | --- | --- |
| CN1CCCC(n2nc(Cc3ccc(Cl)cc3)c3ccccc3c2=O)CC1 (centres undefined) [AZELASTINE] | 9 | 0.18 |
| O=P1(N(CCCl)CCCl)NCCCO1 (centres undefined) [CYCLOPHOSPHAMIDE ANHYDROUS] | 1.1 | – |
| O=C1Nc2ccc(Cl)cc2C(c2ccccc2Cl)=NC1O (centres undefined) [LORAZEPAM] | 1 | 0.01 |
| N[C@@H](Cc1ccc(N(CCCl)CCCl)cc1)C(=O)O | 7 | 0.91 |
| CO[C@H]1/C=C/O[C@@]2(C)Oc3c(C)c(O)c4c(O)c(c(/C=N/N5CCN(C)CC5)c(O)c4c3C2=O)NC(=O)/C(C)=C\C=C\[C@H](C)[C@H](O)[C@@H](C)[C@@H](O)[C@@H](C)[C@H](OC(C)=O)[C@@H]1C [RIFAMPIN] | 1.5 | 0.2 |
| CC1(C)S[C@@H]2[C@H](NC(=O)[C@H](NC(=O)N3CCN(S(C)(=O)=O)C3=O)c3ccccc3)C(=O)N2[C@H]1C(=O)O [MEZLOCILLIN] | 5.23 | 2.4 |
| CNCCC=C1c2ccccc2CCc2ccccc21 [NORTRIPTYLINE] | 10 | 0.2 |
| Cc1ccnc2c1NC(=O)c1cccnc1N2C1CC1 [NEVIRAPINE] | 0.3 | 0.01 |
| O=C(NCCNCC(O)COc1ccc(O)cc1)N1CCOCC1 (centres undefined) [XAMOTEROL] | 3 | 1.86 |
| CN[C@@H]1[C@@H](O)[C@@H](O[C@@H]2[C@@H](O)[C@H](O[C@H]3OC(CN)=CC[C@H]3N)[C@@H](N)C[C@H]2N)OC[C@]1(C)O [SISOMICIN] | 1 | 0.76 |
| CC(C)N(CCC(C(N)=O)(c1ccccc1)c1ccccn1)C(C)C (centres undefined) [DISOPYRAMIDE] | 0.9 | 0.5 |
| CC(C)NCC(O)c1ccc(NS(C)(=O)=O)cc1 (centres undefined) [SOTALOL] | 2 | 1.7 |
| Cc1cc(NC(=O)C2=C(O)c3ccccc3S(=O)(=O)N2C)no1 [ISOXICAM] | 0.07 | – |
| CCCCCCCN(CC)CCCC(O)c1ccc(NS(C)(=O)=O)cc1 (centres undefined) [IBUTILIDE] | 25 | 2.5 |
| CCS(=O)(=O)CCn1c([N+](=O)[O-])cnc1C [TINIDAZOLE] | 0.6 | 0.11 |
| CN1CCN2c3ncccc3Cc3ccccc3C2C1 (centres undefined) [MIRTAZAPINE] | 8 | 0.32 |
| Nc1nc(=O)[nH]cc1F [FLUCYTOSINE] | 2 | 1.98 |
| Nc1nc2c(c(=O)[nH]1)N(C=O)C(CNc1ccc(C(=O)N[C@@H](CCC(=O)O)C(=O)O)cc1)CN2 (some centres undefined) [LEUCOVORIN] | 5.3 | 0.8 |
| C=CC1=C(C(=O)O)N2C(=O)[C@@H](NC(=O)/C(=N\OCC(=O)O)c3csc(N)n3)[C@H]2SC1 [CEFIXIME] | 1 | 0.42 |
| C[C@@H]1O[C@@H]1P(=O)(O)O [FOSFOMYCIN] | 2 | 2 |
| COc1cccc2c1C(=O)c1c(O)c3c(c(O)c1C2=O)C[C@@](O)(C(=O)CO)C[C@@H]3O[C@H]1C[C@H](N)[C@@H](O)[C@H](C)O1 [EPIRUBICIN] | 20 | 2.44 |

| Compound | clearance [1] [mL/min/kg] | CL renal [2] [mL/min/kg] |
| --- | --- | --- |
| CC1=NS(=O)(=O)c2cc(Cl)ccc2N1 [DIAZOXIDE] | 0.06 | 0.06 |
| CCN(CC)CCNC(=O)c1ccc(NC(C)=O)cc1 [ACECAINIDE] | 4 | 3.2 |
| Cc1onc(-c2c(Cl)cccc2Cl)c1C(=O)N[C@@H]1C(=O)N2[C@@H]1SC(C)(C)[C@@H]2C(=O)O [DICLOXACILLIN] | 2 | 1.2 |
| CC[C@@H](CO)NCCN[C@@H](CC)CO [ETHAMBUTOL] | 10 | 7.3 |
| Cc1c(OCC(F)(F)F)ccnc1C[S+]([O-])c1nc2ccccc2[nH]1 (centres undefined) [LANSOPRAZOLE] | – | 0.04 |
| O=c1[nH]cnc2c1ncn2[C@H]1CC[C@@H](CO)O1 [DIDANOSINE] | – | 6.8 |
| Cn1c(=O)c2c(ncn2C)n(C)c1=O [CAFFEINE] | – | 0.02 |
| COc1cccc(OC)c1C(=O)N[C@@H]1C(=O)N2[C@@H]1SC(C)(C)[C@@H]2C(=O)O [METHICILLIN] | – | 4.2 |
| Cc1cn([C@H]2C=C[C@@H](CO)O2)c(=O)[nH]c1=O [STAVUDINE] | – | 3.53 |
| Cc1ncsc1CCCl [CLOMETHIAZOLE] | – | 0.03 |
| CO/N=C(\C(=O)N[C@@H]1C(=O)N2C(C(=O)O)=CCS[C@H]12)c1csc(N)n1 [CEFTIZOXIME] | – | 1.68 |
| O=C(c1ccccc1)c1ccc2n1CCC2C(=O)O (centres undefined) [KETOROLAC] | – | 0.2 |
| CN(C)C(=O)Oc1ccc[n+](C)c1 [PYRIDOSTIGMINE] | – | 7.2 |
| Cc1cn([C@H]2C[C@H](N=[N+]=[N-])[C@@H](CO)O2)c(=O)[nH]c1=O [ZIDOVUDINE] | – | 5.67 |
| Cc1cccc(C)c1OCC(C)N (centres undefined) [MEXILETINE] | – | 0.83 |
| Nc1nc(NC2CC2)c2ncn([C@H]3C=C[C@@H](CO)C3)c2n1 [ABACAVIR] | – | 0.15 |
| CCC1(c2ccccc2)C(=O)NC(=O)NC1=O [PHENOBARBITAL] | – | 0.02 |
| CC(CCc1ccccc1)NCC(O)c1ccc(O)c(C(N)=O)c1 (centres undefined) [LABETALOL] | – | 0.92 |
| COc1c(N2CCNC(C)C2)c(F)cc2c(=O)c(C(=O)O)cn(C3CC3)c12 (centres undefined) [GATIFLOXACIN] | – | 2.3 |
| CO/N=C(\C(=O)N[C@@H]1C(=O)N2C(C(=O)O)=C(COC(N)=O)CS[C@H]12)c1ccco1 [CEFUROXIME] | – | 2.11 |
| CC(C)(C)NC(=O)[C@H]1CC[C@H]2[C@@H]3CC[C@H]4NC(=O)C=C[C@]4(C)[C@H]3CC[C@]12C [FINASTERIDE] | – | 0.02 |
